In patent US10046082B2, “Collagen sponge containing a drug for promoting fracture healing and method for preparing the same” (WUHAN VSD MEDICAL SCIENCE & TECHNOLOGY CO., LTD., priority 2015, dated 2018):
Marks after values point to notes of the source that are not given here.

Tests used:
[1] = tested on: tibia fracture sites of the rabbits; assay: Three-point bending force test at fracture sites of the rabbits; assay type: in vivo, New Zealand rabbits; settings: n=5
Protocol: (§1) 1.1. Experimental Animal: New Zealand rabbits, each being male and having a weight of about 2 to 3 kg (12 to 16 weeks old) were used
(§2) 1.2. Experimental Grouping and Materials: experiments were divided into a control group (Control), a collagen sponge (CS) group, an ibandronate sodium (0.1 mg/kg IB) group, a group with a small dosage of ibandronate sodium+collagen sponge (SIB+CS, 0.125 mg IB), a group with a median dosage of ibandronte sodium+collagen sponge (MIB+CS, 0.25 mg IB), and a group with a large dosage of ibandronate sodium+collagen sponge (LIB+CS, 0.5 mg IB), in total 6 groups. 10 experimental animals are used for each group, […].
(§3) Preparation of materials for the SIB+CS group: 125 μl of 1 mg/ml IB was added into 600 ml of the enzymolysis solution of collagen to prepare a 50*25*5 mm collagen sponge;
(§4) Preparation of materials for the MIB+CS group: 250 μl of 1 mg/ml IB was added into 600 ml of the enzymolysis solution of collagen to prepare a 50*25*5 mm collagen sponge;
(§5) Preparation of materials for the LIB+CS group: 500 μl of 1 mg/ml IB was added into 600 ml of the enzymolysis solution of collagen to prepare a 50*25*5 mm collagen sponge.
Male New Zealand rabbits were anesthetized by marginal ear vein injection with sodium pentobarbital (3%, […]). After the anesthesia, the skin in the surgical area was depilated with 8% sodium sulfide and disinfected. The animals were fixed on their backs, and disinfected and covered with a sterile towel or sheet. A longitudinal incision was cut at the distal femur of the right leg near the patella. The patella was retracted to expose the inner and outer condyles of the distal femur. A 2 mm Kirschner wire was inserted retrogradely between the inner and outer condyles through an electric drill. The Kirschner wire went through the medullary cavity and came out of the skin from the proximal femur. The distal end of the Kirschner wire was cut off and ensured to be embedded under the surface of the knee joint. The knee was reset. An incision was made on the outer side of the distal femur, and the femur was exposed along the intermuscular space. Sufficient protection was provided for the surrounding soft tissues such as muscles and blood vessels. The femur was cut by a dental drill. The Control group and the IB group were not subjected to any treatment. The prepared materials for the CS group, the SIB+CS group, the MIB+CS group and the LIB+CS group were placed at the fracture sites of the animals, respectively. The incisions and the skin were washed with sterile normal saline and sutured with 5-0 nylon thread. Normal saline (0.1 ml/kg) and ibandronate sodium (0.1 ml/kg) were administered to the Control group and the IB group after surgery, respectively. All the animals were injected intramuscularly with buprenorphine (0.05 mg/kg) twice and with ciprofloxacin (10 mg/kg) once a day for 3 days after the surgery. All the animals were fed normally (lightless, quiet, at a temperature from 20 to 26° C., and at a humidity below 80%). X-ray photographs were taken on the day of surgery to check the condition of fracture apposition and alignment after the surgery. Further, half of the New Zealand rabbits were sacrificed at the 2nd week and the 4th week for detection, respectively.
3.2. Three-point bending force test at tibia fracture sites of the rabbits at the second week and the fourth week

fracture sites = assay: Callus cross-sectional area in rabbit fracture healing experiment; assay type: in vivo, New Zealand rabbits; settings: sponge placed at fracture site (IB group: 0.1 mg/kg IB after surgery), n=5
Protocol: as §1, §2, §3, §4, §5
Male New Zealand rabbits were anesthetized by marginal ear vein injection with sodium pentobarbital (3%, […]). After the anesthesia, the skin in the surgical area was depilated with 8% sodium sulfide and disinfected. […]

CCCCCN(C)CCC(O)(P(=O)(O)O)P(=O)(O)O [IB, ibandronate sodium]
Compressive Strength ([1]; 2nd week): 4.7 ± 1.8 Nmm | Elastic Modulus ([1]; 2nd week): 7.3 ± 2.2 MPa | Limit Load ([1]; 2nd week): 6.8 ± 1.7 N | Compressive Strength ([1]; 4th week): 64.6 ± 7.3^j Nmm | Elastic Modulus ([1]; 4th week): 88.2 ± 19.5 MPa | Limit Load ([1]; 4th week): 95.9 ± 7.04^i,j N | callus cross-sectional area (CSA) (fracture sites; 2nd week after surgery): 89.9 ± 3.6^a,h,i,j,k mm^2 | callus cross-sectional area (CSA) (fracture sites; 4th week after surgery): 120.5 ± 7.8^a,h,i,j,k mm^2
